Source: the supplement of paper PMC10307832

Legend:
Assay in all cases: relative viability (nuclei count vs DMSO), 5 days (fraction); higher = more cells survive
AZD1208 + OSI-027 = compound: N[C@@H]1CCCN(c2c(/C=C3\SC(=O)NC3=O)cccc2-c2ccccc2)C1 [AZD1208] + COc1cccc2cc(-c3nc([C@H]4CC[C@H](C(=O)O)CC4)n4ncnc(N)c34)[nH]c12 [OSI-027] (partner 0.5 µM)
Procedure, shortened: (§1)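 Relative viability was taken as the ratio of nuclei in treated wells to nuclei in vehicle wells. Lung cancer cell lines in 1536-well plates received compounds by pin tool one day after seeding, either one drug alone or a fixed anchor-drug dose plus five library-drug doses (not always all listed) in √10 steps. Nuclei were counted on 4× images after 5 days of treatment, and values are medians of duplicate plates.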

AZD1208 + Alpelisib = compound: N[C@@H]1CCCN(c2c(/C=C3\SC(=O)NC3=O)cccc2-c2ccccc2)C1 [AZD1208] + Cc1nc(NC(=O)N2CCC[C@H]2C(N)=O)sc1-c1ccnc(C(C)(C)C(F)(F)F)c1 [Alpelisib] (partner 2 µM)
Procedure, shortened: as §1

AZD1208 + Vorinostat = compound: N[C@@H]1CCCN(c2c(/C=C3\SC(=O)NC3=O)cccc2-c2ccccc2)C1 [AZD1208] + O=C(CCCCCCC(=O)Nc1ccccc1)NO [Vorinostat] (partner 1 µM)
Procedure, shortened: as §1

XMD14-99 + Dasatinib = compound: CN1CCN(CC1)C2=CC(=C(C=C2)NC3=NC(=C(S3)C(=O)C4=C(C=CC=C4Cl)Cl)N)OC [XMD14-99] + Cc1nc(Nc2ncc(C(=O)Nc3c(C)cccc3Cl)s2)cc(N2CCN(CCO)CC2)n1 [Dasatinib] (partner 0.075 µM)
Procedure, shortened: as §1

Cell Line | relative viability (AZD1208 + OSI-027; first compound 0.08 µM) | relative viability (AZD1208 + OSI-027; first compound 0.253 µM) | relative viability (AZD1208 + OSI-027; first compound 0.8 µM) | relative viability (AZD1208 + OSI-027; first compound 2.53 µM) | relative viability (AZD1208 + OSI-027; first compound 8 µM) | relative viability (AZD1208 + Alpelisib; first compound 0.08 µM) | relative viability (AZD1208 + Alpelisib; first compound 0.253 µM) | relative viability (AZD1208 + Alpelisib; first compound 0.8 µM) | relative viability (AZD1208 + Alpelisib; first compound 2.53 µM) | relative viability (AZD1208 + Alpelisib; first compound 8 µM) | relative viability (AZD1208 + Vorinostat; first compound 0.08 µM) | relative viability (AZD1208 + Vorinostat; first compound 0.253 µM) | relative viability (AZD1208 + Vorinostat; first compound 0.8 µM) | relative viability (AZD1208 + Vorinostat; first compound 2.53 µM) | relative viability (AZD1208 + Vorinostat; first compound 8 µM) | relative viability (XMD14-99 + Dasatinib; first compound 0.08 µM) | relative viability (XMD14-99 + Dasatinib; first compound 0.8 µM) | relative viability (XMD14-99 + Dasatinib; first compound 2.53 µM) | relative viability (XMD14-99 + Dasatinib; first compound 8 µM)
HCC-366 | 0.963 | 0.96 | 0.837 | 0.819 | 0.672 | 0.453 | 0.362 | 0.337 | 0.27 | 0.227 | 0.373 | 0.473 | 0.391 | 0.36 | 0.291 | 0.596 | 0.609 | 0.603 | 0.528
SK-MES-1 | 0.541 | 0.509 | 0.492 | 0.541 | 0.461 | 0.697 | 0.856 | 0.628 | 0.704 | 0.683 | 1.07 | 1.14 | 1.07 | 1.01 | 1.02 | 0.381 | 0.398 | 0.336 | 0.225
NCI-H727 | 0.576 | 0.561 | 0.414 | 0.468 | 0.548 | 0.542 | 0.543 | 0.496 | 0.497 | 0.387 | 0.925 | 1.14 | 1.11 | 1.11 | 1.03 | 0.322 | 0.273 | 0.309 | 0.23
RERF-LC-KJ | 0.511 | 0.558 | 0.512 | 0.518 | 0.41 | 0.708 | 0.762 | 0.703 | 0.652 | 0.607 | 0.646 | 0.668 | 0.7 | 0.658 | 0.598 | 0.883 | 0.869 | 0.764 | 0.608
NCI-H1623 | 0.445 | 0.38 | 0.406 | 0.366 | 0.431 | – | – | – | – | – | – | – | – | – | – | 0.542 | 0.515 | 0.516 | 0.504
Calu-6 | – | – | – | – | – | 0.993 | 1.03 | 0.889 | 0.918 | 0.818 | – | – | – | – | – | – | – | – | –
LC-2-ad | 0.788 | 0.776 | 0.624 | 0.707 | 0.651 | 0.816 | 0.592 | 0.787 | 0.894 | 0.794 | 0.716 | 0.703 | 0.685 | 0.704 | 0.669 | 0.541 | 0.643 | 0.535 | 0.476
CAL-12T | 0.61 | 0.668 | 0.583 | 0.506 | 0.436 | 1.12 | 1.22 | 1.13 | 1.1 | 0.851 | 0.675 | 0.814 | 0.565 | 0.653 | 0.439 | 0.34 | 0.449 | 0.356 | 0.248
SK-LU-1 | 0.283 | 0.337 | 0.285 | 0.316 | 0.248 | 0.792 | 0.913 | 0.979 | 0.9 | 0.76 | 0.776 | 0.785 | 0.73 | 0.783 | 0.736 | 0.182 | 0.204 | 0.181 | 0.163
NCI-H1650 | 0.592 | 0.516 | 0.568 | 0.434 | 0.473 | – | – | – | – | – | 0.635 | 0.464 | 0.643 | 0.588 | 0.472 | 0.335 | 0.289 | 0.316 | 0.2
